Structures are written as SMILES.

For experiment [1], the system named is Aedes aegypti (Rockefeller strain) mosquitoes. The experiment is described as follows: Microinjection into female mosquitoes before blood feeding; observation for defective phenotypes (midgut, blood meal storage). Type of experiment: in vivo. To be noted: 200 nL of 5.0 mM compound in 5% DMSO microinjected into four day old females; fed human blood one day later. As to the method:
Aedes aegypti (Rockefeller strain) mosquitoes were reared in standard conditions. Four day old female mosquitoes were microinjected with 200 nL of 5% DMSO (control) or the compound described in Example 1, i.e. 4-isopropyl-8-phenyl-1,3,4,6,6a,9b-hexahydrothiopyrano [3,4-e]isoindole-7,9(8H,9aH)-dione (5.0 mM in 5% DMSO), using Nanoject II (Drummond). The injected mosquitoes were recovered for one day in the environmental chamber and fed on warmed human blood through a membrane feeder. Twenty fully fed mosquitoes from each group were observed under a dissecting microscope for defective phenotypes, including midgut and primary follicle development in the ovaries during the first gonotrophic cycle.

The subject of a further experiment is blood-fed mosquitoes. Description: Evaluation of follicle size after microinjection into blood-fed mosquitos. Format: in vivo, Aedes aegypti. The following applies: 200 nl of 0.7 mM compound microinjected one hour after blood feeding; ovaries dissected 48 h post blood meal; DMSO control 452.8±6.4 μm. As to the method: The mosquitos were reared in environmental chambers. Larvae were then fed with a mixture of tropical flakes, rat chow, liver powder, or cat food pellets. Adult pests were maintained on 10% sucrose. Four-day old mosquitos were allowed to feed on human blood supplemented with fresh ATP. One hour after blood feeding, the mosquitos were briefly chilled at 4° C. to immobilize. 200 nl of the compound, 4-isopropyl-8-phenyl-1,3,4,6,6a,9b-hexahydrothiopyrano [3,4-e]isoindole-7,9(8H,9aH)-dione, was diluted in water to a final concentration of 0.7 mM before use. Then the compound was microinjected with a microinjector into fully fed mosquitos. For each experiment, the mosquitos were also microinjected with 2% DMSO (control). Mosquitos were allowed to feed 10% sucrose, and 48 h post blood meal, ovaries were dissected from the injected mosquitos in 1×PBS under a microscope. Ovaries were teased to separate follicles, and the images were digitally captured for follicle length measurement.

For experiment [2], the system named is mosquito larvae (second instar). Description: Evaluation of mosquito larval mortality. Format: in vivo, Aedes aegypti. The following applies: 0.2 mM in larval growth media, 24 hours of exposure. As to the method: Two-day-old second instar larvae were transferred to wells in a plate containing 1 ml of larval growth media. The 4-isopropyl-8-phenyl-1,3,4,6,6a,9b-hexahydrothiopyrano [3,4-e]isoindole-7,9(8H,9aH)-dione and DMSO (control) were added directly to the media and swirled. The final concentration of the 4-isopropyl-8-phenyl-1,3,4,6,6a,9b-hexahydrothiopyrano [3,4-e]isoindole-7,9(8H,9aH)-dione in each well was 0.2 mM, the DMSO concentration was 0.2%. The plates were kept in the environmental chamber. Mosquito larvae were examined under a microscope for any sign of mortality 24 hours after exposure. Data obtained from at least three biological replicates were statistically analyzed with the Bonferroni post tests.

As for `CC(C)[C@@H]1CSC[C@@H]2C1=CC[C@@H]1C(=O)N(c3ccccc3)C(=O)[C@@H]12` [4-isopropyl-8-phenyl-1,3,4,6,6a,9b-hexahydrothiopyrano [3,4-e]isoindole-7,9(8H,9aH)-dione], in experiment [1], the “blood-fed mosquitoes exhibiting the defect in the alimentary canal (blood meal misdirected into the ventral diverticulum)” value is on record as 40%. In addition, the follicle size in the experiment with blood-fed mosquitoes is 145.6±11.0 μm. In experiment [2], the “number of mosquito larvae died” value is on record as 18 out of 45 mosquito larvae. The molecule also returned a mosquito larvae died in experiment [2] (all control larvae survived) of 40%.

Source of the values: patent US10370385B2, “Tricyclic mosquitocides and methods of making and using thereof” (The Arizona Board of Regents on Behalf of the University of …, priority 2014, dated 2019).
